Data taken from patent US9463188B2, “Osteopontin production inhibitor containing dictyopyrone derivative or dihydrodictyopyrone derivative as active ingredient” (TOHOKU UNIVERSITY, priority 2013, dated 2016).

Tested on: OPN promoter in A549/OPNluc cells
Test: Influence of mevalonic acid on suppression of luciferase activity under control of OPN promoter
Assay type: cell-based, human
Method: In order to determine whether the OPN production inhibitory effect of a dictyopyrone derivative or a dihydrodictyopyrone derivative contained as an active ingredient in the OPN production inhibitor according to the present invention is based on the same mechanism of action as a well-known statin-based drug for treatment of hypercholesteremia, simvastatin or the compound 3 was added to a culture liquid containing A549/OPNluc cells to determine its effect on gene expression under control of OPN promoter and to observe whether or not the effect was maintained even in the presence of mevalonic acid. […]
The solution in each well was mixed with a vortex mixer, and then the 96-well plate was incubated in a CO2 incubator (at 37° C. and 5% CO2) for 48±4 hours. […] After 30 min, 90 min, and 120 min, absorbance values (450 nm) were measured using a microplate reader (Bio-Rad; Benchmark or Thermo Scientific; Varioskan Flash).
The absorbance values were input into an Excel file, and the absorbance values of all the samples of each test group were divided by the average absorbance value of Control to determine the ratio of the absorbance value of each sample to the absorbance value of Control (Ratio to Control). Absorbance value of each sample÷absorbance value of Control=Ratio to Control […]

## CCCCCCCCCCCC(=O)[C@H]1C(=O)O[C@@H](C)C[C@@H]1C [Chemical formula 3]
Compound 3 25 μM + MVA (100 μM or 1 mM)
  luciferase activity under control of OPN promoter after addition of MVA: not recovered
Compound 3 25 μM, no MVA, corrected by WST Ratio to Control
  luciferase activity under control of OPN promoter: suppression of luciferase activity
